Series [1] relates to CD. Particulars: cited from earlier work.
Series [2] has as its system UC. The note with it: cited from earlier work.
In series [3] the test system is NF-κB. The note with it: in CD; Guidi et al. (2005); cited from earlier work.
Series [4] relates to DSS-induced colitis in Balb/c mice. Put plainly: DSS-induced colitis in Balb/c mice (Example 7). In kind it is in vivo. Particulars: s.c. b.i.d., GL1001 300 mg/kg, sulfasalazine 150 mg/kg. Here is the method: A study was designed with six groups of Balb/c mice: naïve control, DSS followed by vehicle, DSS followed by GL1001 30 mg/kg/day, DSS followed by GL1001 100 mg/kg/day, DSS followed by GL1001 300 mg/kg/day, and DSS followed by sulfasalazine 150 mg/kg/day. Administration of DSS was via drinking water, from day 1 to day 6 of the study. […] Administration of vehicle, GL1001 and sulfasalazine was subcutaneous, twice daily, from day 6 until termination of the study (day 16).
Body weight of each animal was measured at days 1, 3 and 5 (pre-initiation of GL1001 or sulfasalazine treatment) and at days 7, 9, 11 and 13 (post-initiation of GL1001 or sulfasalazine treatment). On these same days, disease activity measurements were recorded, including: • (a) rectal prolapse (0=no prolapse, 1=partial prolapse, 2=moderate prolapse, 3=full prolapse); • (b) stool consistency (0=solid pellet, 1=semi-solid, 2=soft stool, 3=diarrhea); and • (c) fecal occult blood (0=no blood present, 1=occult blood, 2=gross blood).
At termination of the study, colon length was determined and histological analysis was conducted as in Example 6.

With “Infliximab: anti-TNFα monoclonal antibody”, in series [1] (CD, after a single dose), the “induction of remission rate” value is listed as 50% and the response rate is recorded as 80%. Also, the “fistula responds (closes), patients” value in series [1] (fistulizing CD) is listed as 68%. Also, the “patients who develop an abscess” value in series [1] (in vivo) is reported as 12%. Moreover, in series [2], the response rates is given as 50-70%. Further, the NF-κB activity entry in series [3] is “decrease”.

On to `O=C(O)c1cc(/N=N/c2ccc(S(=O)(=O)Nc3ccccn3)cc2)ccc1O` [sulfasalazine, reference compound], for which, in series [4] (day 7), the fecal occult blood entry is on record as “reduces” and the stool consistency result was “No significant effect”. For the same compound, in series [4] (day 9), the percentage weight loss result was “No significant effect” and the rectal prolapse entry is given as “reduces”. Moreover, in series [4], the “distal colon crypt score” value is “reduces”, the “distal colon inflammation score” value is recorded as “reduces”, the “distal colon total histopathology score” value was “reduces” and the “reduction in colon length” value is “inhibits reduction”.
